Source: the supplement of paper PMC10307832

Legend:
Experiment in all cases: relative viability (nuclei count vs DMSO), 5 days (fraction); higher = more cells survive
[1] = tested on: NCI-H838
Procedure, shortened: (§1)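 Values are medians from duplicate plates. Each reflects relative viability, defined as the nuclei count of treated wells over that of vehicle wells. Lung cancer cell lines in 1536-well plates were pin-tool dosed one day after seeding with one drug alone or with a fixed anchor-drug dose plus five library-drug doses (not always all listed) in √10 steps, then fixed, stained and imaged at 4× after 5 days.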

[2] = tested on: NCI-H520
Procedure, shortened: as §1

[3] = tested on: H3255
Procedure, shortened: as §1

[4] = tested on: NCI-H2405
Procedure, shortened: as §1

[5] = tested on: EPLC-272H
Procedure, shortened: as §1

[6] = tested on: HCC-827
Procedure, shortened: as §1

[7] = tested on: NCI-H1395
Procedure, shortened: as §1

[8] = tested on: NCI-H2087
Procedure, shortened: as §1

[9] = tested on: NCI-H1651
Procedure, shortened: as §1

[10] = tested on: EMC-BAC-2
Procedure, shortened: as §1

[11] = tested on: NCI-H2085
Procedure, shortened: as §1

O=c1cc(N2CCOCC2)oc2c(-c3cccc4c3sc3ccccc34)cccc12 + Cc1cc(Nc2cc(N3CCN(C)CC3)nc(Sc3ccc(NC(=O)C4CC4)cc3)n2)n[nH]1 [Tozasertib] (partner 0.1 µM)
relative viability ([1]; first compound 0.01 µM): 0.246
relative viability ([1]; first compound 0.03162 µM): 0.273
relative viability ([1]; first compound 0.1 µM): 0.27
relative viability ([1]; first compound 0.3162 µM): 0.298
relative viability ([1]; first compound 1 µM): 0.237
relative viability ([2]; first compound 0.01 µM): 0.38
relative viability ([2]; first compound 0.03162 µM): 0.409
relative viability ([2]; first compound 0.1 µM): 0.418
relative viability ([2]; first compound 0.3162 µM): 0.438
relative viability ([2]; first compound 1 µM): 0.442
relative viability ([3]; first compound 0.01 µM): 0.789
relative viability ([3]; first compound 0.03162 µM): 0.484
relative viability ([3]; first compound 0.1 µM): 0.709
relative viability ([3]; first compound 0.3162 µM): 0.593
relative viability ([3]; first compound 1 µM): 0.606
relative viability ([4]; first compound 0.01 µM): 0.727
relative viability ([4]; first compound 0.03162 µM): 0.753
relative viability ([4]; first compound 0.1 µM): 0.821
relative viability ([4]; first compound 0.3162 µM): 0.734
relative viability ([4]; first compound 1 µM): 0.75
relative viability ([5]; first compound 0.01 µM): 0.288
relative viability ([5]; first compound 0.03162 µM): 0.327
relative viability ([5]; first compound 0.3162 µM): 0.206
relative viability ([5]; first compound 1 µM): 0.253
relative viability ([6]; first compound 0.01 µM): 0.386
relative viability ([6]; first compound 0.03162 µM): 0.435
relative viability ([6]; first compound 0.1 µM): 0.431
relative viability ([6]; first compound 0.3162 µM): 0.426
relative viability ([6]; first compound 1 µM): 0.389
relative viability ([7]; first compound 0.01 µM): 0.78
relative viability ([7]; first compound 0.03162 µM): 0.776
relative viability ([7]; first compound 0.1 µM): 0.659
relative viability ([7]; first compound 0.3162 µM): 0.832
relative viability ([7]; first compound 1 µM): 0.682
relative viability ([8]; first compound 0.01 µM): 0.289
relative viability ([8]; first compound 0.03162 µM): 0.247
relative viability ([8]; first compound 0.1 µM): 0.297
relative viability ([8]; first compound 0.3162 µM): 0.226
relative viability ([8]; first compound 1 µM): 0.25
relative viability ([9]; first compound 0.01 µM): 0.687
relative viability ([9]; first compound 0.03162 µM): 0.848
relative viability ([9]; first compound 0.1 µM): 0.844
relative viability ([9]; first compound 0.3162 µM): 0.72
relative viability ([9]; first compound 1 µM): 0.751
relative viability ([10]; first compound 0.01 µM): 0.303
relative viability ([10]; first compound 0.03162 µM): 0.29
relative viability ([10]; first compound 0.1 µM): 0.313
relative viability ([10]; first compound 0.3162 µM): 0.33
relative viability ([10]; first compound 1 µM): 0.304
relative viability ([11]; first compound 0.01 µM): 0.841
relative viability ([11]; first compound 0.03162 µM): 0.813
